Assay results: PMC11842024, “Reversible male contraception by targeted inhibition of serine/threonine kinase 33” (Science (New York, N.Y.), 2024)

Legend:
male mice = experiment: Fertility analysis and reversibility in male mice; assay type: in vivo
Protocol: On the basis of molecular modeling, mouse and human STK33 have identical ATP binding pockets (fig. S19), consistent with evolutionary conservation and function of STK33. To determine the consequences of STK33 inhibition in vivo, we evaluated reproductive outcomes in male mice dosed with CDD-2807. […] In protocol 1, adult male mice (n = 6 per cohort) were treated with vehicle control or CDD-2807 at 15 mg kg^−1 intraperitoneally twice per day for 21 days, subsequently housed continuously with fertile female mice of reproductive age (two per male), and then evaluated at day 45 for effects of CDD-2807 on the male reproductive tract (after the first litter was born) or continued to be housed with the females until day 66 after the completion of the 60-day breeding data collection (fig. S21A). In protocol 2, adult male mice (n = 7 per cohort) were treated with vehicle control or CDD-2807 at 50 mg kg^−1 once per day for 21 days, subsequently housed continuously with females (two per male), and then evaluated at later time points (fig. S21B). […] In month 2, litters were born to all females housed with the six control males (2.0 ± 0 litters per male; 7.25 ± 0.17 pups per female per litter) (Fig. 4A). By contrast, no litters were produced by females housed with males who received CDD-2807 (Fig. 4A). For protocol 2 mice, all seven control males sired litters from both females in month 1 (7.29 ± 0.18 pups per litter per female), whereas only one female became pregnant and delivered a single pup from the seven CDD-2807–treated males (50 mg kg^−1 day^−1) (0.07 ± 0.07 pups per litter per female) (Fig. 4B). […] Thus, CDD-2807 delivery in both protocols induced a contraceptive effect. […]
Fertility analysis. Sexually mature male C57/129 hybrid mice were randomly assigned to either the vehicle control treatment or the CDD-2807 treatment groups. Drug formulation and injections were as follows: for protocol 1 mice receiving the 15 mg/kg CDD-2807 twice daily dosing had the compound dissolved in DMSO, which was injected at 5% of the final volume in 10% Captisol and water. For protocol 2 mice receiving a single daily dose of 50 mg/kg CDD-2807, the compound was dissolved in DMSO and injected at 5% in 20% Captisol and water. All injections were administered as i.p. injections, and for the 15 mg/kg CDD-2807 and DMSO control mice, the injections were delivered in the morning and the evening. Mice in the 50 mg/kg dosing received i.p. injections once in the evening. Weights were measured daily prior to drug administration and monitored throughout the entirety of the injection period. Injections were given for 21 days prior to introduction of female mice. During the fertility assessment, males were housed continuously with two C57/129 sexually mature females for 45 days to generate approximately two months of fertility data. During the fertility assessment, the total number of pups born per litter sired by each male were counted and the total number of litters and pups sired per male over the entire trial was calculated. Mean pup number and SEM were used to determine differences in average number of […]
fig. S21. Protocol timelines of mouse breeding and reversibility study. (A) Protocol 1 represents the 15 mg/kg twice per day drug dosing of CDD-2807. Samples were collected at euthanasia on day 45 from half of the male mice, allow ing for the completion of the 30-day breeding data to be collected and to give the male mice sufficient time with their female counterparts to initiate the day 60 breeding data. After completion of the entire 60-day breeding data, protocol 1 mice were then “rested” for 21 days prior to measuring their recovery period where they were housed with females to determine fertility. ( B) Protocol 2 represents the 50 mg/kg per day drug dosing of CDD-2807. Samples were collected at euthanasia on day 63 from half of the male mice; this allowed for the entire completion of the initial breeding data prior to collections. […]

MAP4K2 = biological target: T1, MAP4K2 (Homo sapiens, UniProt Q12851); experiment: NanoBRET K192 assay (Promega); assay type: cell-based; conditions: HEK293 cells
T1 construct: against 192 full-length protein kinases in human embryonic kidney 293 (HEK293) cells; host or cells: HEK293
T1 sequence (Q12851 whole entry): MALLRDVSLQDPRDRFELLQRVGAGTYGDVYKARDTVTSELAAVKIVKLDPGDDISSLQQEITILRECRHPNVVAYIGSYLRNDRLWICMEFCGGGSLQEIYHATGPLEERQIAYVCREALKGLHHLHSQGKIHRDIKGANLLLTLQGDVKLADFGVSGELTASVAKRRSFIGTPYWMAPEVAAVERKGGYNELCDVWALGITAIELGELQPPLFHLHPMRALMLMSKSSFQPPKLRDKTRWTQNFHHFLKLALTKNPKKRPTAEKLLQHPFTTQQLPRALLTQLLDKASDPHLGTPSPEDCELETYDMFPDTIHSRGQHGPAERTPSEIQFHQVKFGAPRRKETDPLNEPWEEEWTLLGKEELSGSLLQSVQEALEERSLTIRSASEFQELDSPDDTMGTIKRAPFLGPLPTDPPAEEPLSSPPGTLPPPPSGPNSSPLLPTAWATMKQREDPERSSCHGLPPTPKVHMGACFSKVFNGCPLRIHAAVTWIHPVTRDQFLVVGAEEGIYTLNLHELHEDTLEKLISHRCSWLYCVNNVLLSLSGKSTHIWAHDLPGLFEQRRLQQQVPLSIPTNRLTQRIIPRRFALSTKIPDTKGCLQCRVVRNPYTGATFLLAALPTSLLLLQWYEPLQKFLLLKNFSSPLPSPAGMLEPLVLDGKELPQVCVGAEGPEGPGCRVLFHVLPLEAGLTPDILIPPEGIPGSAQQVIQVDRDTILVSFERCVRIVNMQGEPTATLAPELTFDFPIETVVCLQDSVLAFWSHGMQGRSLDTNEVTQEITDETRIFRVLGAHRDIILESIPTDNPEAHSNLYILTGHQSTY
Protocol: (§1) NanoBRET Target Engagement K192 assay. HEK293 cells (ATCC) were cultured in DMEM (Gibco) + 10% FBS (Seradigm) and incubated in a humidified 37°C/5% CO2 incubator. The NanoBRET Target Engagement K192 Kinase Selectivity System (Promega) contains 192 unique transfection-ready NanoLuc/Kinase fusions, pre-diluted in either transfection carrier DNA or relevant cyclin DNA. These NanoLuc/Kinase fusion constructs were transfected into HEK293 cells using Fugene HD (Promega) according to the manufacturer’s protocol. Briefly, 10 µL of a 20 µg/mL DNA solution was added to white, TC-treated 96-well assay plates (Corning), followed by 30 µL of a diluted Fugene HD solution (20 µL Fugene/1 mL Opti-MEM). After transfection complex formation, HEK293 cells were resuspended at 3.3 × 105 c/mL in Opti-MEM + 1% FBS and added at a volume of 60 µL per well, to result in approximately 20000 cells/well. Cells were incubated in a humidified 37°C/5% CO2 incubator for 20 hours. Tracer K-10 (Promega) was prepared at a 100× concentration in DMSO (Sigma) and diluted to a working concentration of 10× in tracer dilution buffer (12.5 mM HEPES, 31.25% PEG400, pH 7.5) (Promega). Test compounds were prepared as concentrated stock solutions in DMSO and diluted in Opti-MEM to prepare 10× working stocks. Cells were equilibrated with test compounds and Tracer K-10 for 2 hours prior to BRET measurements. For target engagement analysis, Tracer K-10 was added to cells at one of 4 […]
(§2) manufacturer’s protocol. To measure BRET, NanoBRET NanoGlo Substrate and Extracellular NanoLuc Inhibitor (Promega) were added according to the manufacturer’s protocol, and filtered luminescence was measured on a GloMax Discover luminometer equipped with 450 nm BP filter (donor) and 600 nm LP filter (acceptor), using 0.5 s integration time. Milli-BRET units are calculated by multiplying the raw BRET units by 1000.
(§3) For Fractional Occupancy determination, the following equation was used:
(§4) % Occupancy = [1-(X-Z)/(Y-Z)]×100
(§5) Where X = BRET in the presence of the test compound and Tracer K10, Y = BRET in the presence of Tracer K10 only, and Z = Full occupancy, or BRET in the absence of the test compound and […]
(§6) Tracer K10. […]

PHKG1 = biological target: T2, PHKG1 (Homo sapiens, UniProt Q16816); experiment: NanoBRET K192 assay (Promega); assay type: cell-based; conditions: HEK293 cells
T2 construct: against 192 full-length protein kinases in human embryonic kidney 293 (HEK293) cells; host or cells: HEK293
T2 sequence (Q16816 whole entry): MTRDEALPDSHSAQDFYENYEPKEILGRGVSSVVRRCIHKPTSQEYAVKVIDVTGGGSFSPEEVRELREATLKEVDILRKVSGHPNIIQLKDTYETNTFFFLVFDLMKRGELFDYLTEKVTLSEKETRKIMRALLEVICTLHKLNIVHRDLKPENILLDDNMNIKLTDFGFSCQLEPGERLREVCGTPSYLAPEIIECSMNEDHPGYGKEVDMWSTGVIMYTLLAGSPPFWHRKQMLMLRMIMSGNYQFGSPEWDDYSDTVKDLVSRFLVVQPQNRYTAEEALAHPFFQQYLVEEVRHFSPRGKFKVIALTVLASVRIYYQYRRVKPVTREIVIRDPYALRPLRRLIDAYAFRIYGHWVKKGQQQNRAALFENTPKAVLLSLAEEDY
Protocol: as §1, §2, §3, §4, §5, §6

PTK2B = biological target: T3, PTK2B (Homo sapiens, UniProt Q14289); experiment: NanoBRET K192 assay (Promega); assay type: cell-based; conditions: HEK293 cells
T3 construct: against 192 full-length protein kinases in human embryonic kidney 293 (HEK293) cells; host or cells: HEK293
T3 sequence (Q14289 whole entry): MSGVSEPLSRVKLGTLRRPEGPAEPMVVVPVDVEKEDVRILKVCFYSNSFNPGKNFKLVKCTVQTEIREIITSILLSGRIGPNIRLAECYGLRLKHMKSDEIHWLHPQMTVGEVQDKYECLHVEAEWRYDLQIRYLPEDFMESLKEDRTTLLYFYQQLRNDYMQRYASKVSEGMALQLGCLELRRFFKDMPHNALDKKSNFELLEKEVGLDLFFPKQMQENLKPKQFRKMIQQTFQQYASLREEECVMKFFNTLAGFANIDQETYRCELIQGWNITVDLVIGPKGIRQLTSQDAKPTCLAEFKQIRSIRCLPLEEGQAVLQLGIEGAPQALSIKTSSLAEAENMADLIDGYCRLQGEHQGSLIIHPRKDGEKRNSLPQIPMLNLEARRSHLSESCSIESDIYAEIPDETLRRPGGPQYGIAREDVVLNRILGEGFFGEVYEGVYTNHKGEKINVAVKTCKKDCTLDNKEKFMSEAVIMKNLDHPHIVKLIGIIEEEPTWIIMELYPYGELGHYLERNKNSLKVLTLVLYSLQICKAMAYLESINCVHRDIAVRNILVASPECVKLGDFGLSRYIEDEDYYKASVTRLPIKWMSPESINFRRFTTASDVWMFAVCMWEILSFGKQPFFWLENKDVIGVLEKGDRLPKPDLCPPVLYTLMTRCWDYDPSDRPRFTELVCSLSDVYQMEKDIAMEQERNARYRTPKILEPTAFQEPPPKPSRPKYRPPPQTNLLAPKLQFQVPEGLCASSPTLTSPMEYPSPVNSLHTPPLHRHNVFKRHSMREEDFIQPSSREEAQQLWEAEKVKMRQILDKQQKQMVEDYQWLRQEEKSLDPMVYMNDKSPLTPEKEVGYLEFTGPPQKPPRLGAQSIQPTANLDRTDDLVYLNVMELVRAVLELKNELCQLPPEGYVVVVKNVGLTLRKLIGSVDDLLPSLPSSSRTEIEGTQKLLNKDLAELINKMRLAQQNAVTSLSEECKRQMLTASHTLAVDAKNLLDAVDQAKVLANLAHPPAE
Protocol: as §1, §2, §3, §4, §5, §6

CSNK1G2 = biological target: T4, CSNK1G2 (Homo sapiens, UniProt P78368); experiment: NanoBRET K192 assay (Promega); assay type: cell-based; conditions: HEK293 cells
T4 construct: against 192 full-length protein kinases in human embryonic kidney 293 (HEK293) cells; host or cells: HEK293
T4 sequence (P78368 whole entry): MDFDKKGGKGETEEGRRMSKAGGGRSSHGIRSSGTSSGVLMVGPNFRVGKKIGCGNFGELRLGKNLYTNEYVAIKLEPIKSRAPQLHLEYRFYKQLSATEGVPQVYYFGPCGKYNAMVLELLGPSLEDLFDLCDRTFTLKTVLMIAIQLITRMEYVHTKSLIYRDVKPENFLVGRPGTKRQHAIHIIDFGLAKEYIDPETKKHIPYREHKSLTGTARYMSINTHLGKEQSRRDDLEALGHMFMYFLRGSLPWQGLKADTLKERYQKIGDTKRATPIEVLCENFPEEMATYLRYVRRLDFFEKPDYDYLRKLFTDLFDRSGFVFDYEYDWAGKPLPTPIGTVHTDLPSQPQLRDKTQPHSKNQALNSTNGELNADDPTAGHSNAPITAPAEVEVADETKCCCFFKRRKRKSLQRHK
Protocol: as §1, §2, §3, §4, §5, §6

GAK = biological target: T5, GAK (Homo sapiens, UniProt O14976); experiment: NanoBRET K192 assay (Promega); assay type: cell-based; conditions: HEK293 cells
T5 construct: against 192 full-length protein kinases in human embryonic kidney 293 (HEK293) cells; host or cells: HEK293
T5 sequence (O14976 whole entry): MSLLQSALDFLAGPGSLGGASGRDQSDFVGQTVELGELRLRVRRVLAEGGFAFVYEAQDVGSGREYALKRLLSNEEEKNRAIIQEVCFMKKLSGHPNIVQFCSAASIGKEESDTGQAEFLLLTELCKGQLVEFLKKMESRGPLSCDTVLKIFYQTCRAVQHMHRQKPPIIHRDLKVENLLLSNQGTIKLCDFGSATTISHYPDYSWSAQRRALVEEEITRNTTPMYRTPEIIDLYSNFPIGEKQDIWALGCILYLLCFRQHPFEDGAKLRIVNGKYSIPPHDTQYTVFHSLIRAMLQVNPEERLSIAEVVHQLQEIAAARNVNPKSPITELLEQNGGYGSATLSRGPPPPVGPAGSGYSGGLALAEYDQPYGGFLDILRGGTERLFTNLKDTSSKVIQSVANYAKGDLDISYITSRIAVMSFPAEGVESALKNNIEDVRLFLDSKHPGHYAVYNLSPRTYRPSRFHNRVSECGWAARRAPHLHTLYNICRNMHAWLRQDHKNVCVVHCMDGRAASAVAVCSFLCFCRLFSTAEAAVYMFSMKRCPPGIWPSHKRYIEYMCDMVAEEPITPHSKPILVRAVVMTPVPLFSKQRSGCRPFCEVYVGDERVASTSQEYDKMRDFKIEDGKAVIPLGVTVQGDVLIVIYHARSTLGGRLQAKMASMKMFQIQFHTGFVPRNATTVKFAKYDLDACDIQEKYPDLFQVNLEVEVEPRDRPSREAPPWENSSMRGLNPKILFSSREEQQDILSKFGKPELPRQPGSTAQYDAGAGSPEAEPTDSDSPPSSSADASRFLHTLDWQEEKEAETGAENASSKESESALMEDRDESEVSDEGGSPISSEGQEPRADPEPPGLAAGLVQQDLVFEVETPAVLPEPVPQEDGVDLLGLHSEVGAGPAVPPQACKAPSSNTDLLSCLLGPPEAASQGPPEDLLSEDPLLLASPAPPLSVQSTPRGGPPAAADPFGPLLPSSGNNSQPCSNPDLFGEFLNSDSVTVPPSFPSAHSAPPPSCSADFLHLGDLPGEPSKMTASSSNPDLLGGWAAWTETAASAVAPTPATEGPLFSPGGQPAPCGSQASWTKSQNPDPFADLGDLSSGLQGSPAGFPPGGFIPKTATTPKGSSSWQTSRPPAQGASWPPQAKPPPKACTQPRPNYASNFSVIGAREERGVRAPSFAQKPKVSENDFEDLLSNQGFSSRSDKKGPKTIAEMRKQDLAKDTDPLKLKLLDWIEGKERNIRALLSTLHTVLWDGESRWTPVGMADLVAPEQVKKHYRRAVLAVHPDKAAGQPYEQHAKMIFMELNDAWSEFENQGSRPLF
Protocol: as §1, §2, §3, §4, §5, §6

O=C(c1ccc2[nH]nc(C#Cc3ccccc3-c3ccccc3)c2c1)N1CC2(CCCNC2)C1 [CDD-2807] was tested, and the litters per male (male mice; protocol 1 (15 mg/kg i.p. twice per day), month 1) was 1.0 ± 0.37 litters per male, the “pups per female per litter” value (male mice; protocol 1, month 1) was 0.92 ± 0.34 pups per female per litter and the “treated males that sired litters” value (male mice; protocol 1, month 1) was “four of the six”. For the same molecule, the “litters produced by females housed with treated males” value (male mice; protocol 1, month 2) was “no litters”, the “pups per litter per female after recovery” value (male mice; protocol 1, treatment halted at day 63, 21 days rest, first month of breeding) was 7.67 ± 0.61 pups per litter per female and the “pups per litter per female” value (male mice; protocol 2 (50 mg/kg/day i.p.), month 1) was 0.07 ± 0.07 pups per litter per female. For the same molecule, the “time to sire first litters after treatment (fertility resumption)” value (male mice; protocol 2, after completion of treatment) was 53.5 ± 5.1 days, the litters sired (male mice; protocol 2, month 2) was “did not sire any litters” and the receptor occupancy at 1 µM (MAP4K2) was 40 ± 0.6%. It also gave a receptor occupancy at 1 µM (PHKG1) of 58.4 ± 2.9%, a receptor occupancy at 1 µM (PTK2B) of 45.2 ± 0.2% and a receptor occupancy at 1 µM (CSNK1G2) of 32.4 ± 1.3%. The receptor occupancy at 1 µM (GAK) was 57.4 ± 0.1%.
